# Values quoted from earlier work in patent US10188676B2, “Anti-inflammatory solution” (Hypo-Stream Limited, priority 2013, dated 2019).
# Test system: alveolar osteitis (AO)
# Conditions: 0.2% solution or gel, surgical site irrigation
compound,measurement,value
[H]/N=C(\N/C(=N/[H])NCCCCCCNC(=N)NC(=N)Nc1ccc(Cl)cc1)Nc1ccc(Cl)cc1 [chlorhexidine],effectiveness against alveolar osteitis,Neither report found evidence of effectiveness
